Tested on: HSPC-pDC

`CC[C@@H]1[C@H](F)C(=O)N[C@@H]1COc1nccc2cc(C(N)=O)c(OC)cc12` [IRAK4 inhibitor, Pf06650833] was tested, and the cell viability was “without major effects”.
